We go through 28 molecules from US9763957B2, “Autotaxin inhibitors” (Novartis AG, priority 2013, dated 2017).

A word on the IC50: it is the point on the concentration scale where inhibition reaches its midpoint.

This assay has as its target Recombinant human ATX (Homo sapiens (Human), UniProt Q13822). Nature of the assay: ATX inhibition assay (choline release, Amplex Red fluorescence). The following applies: ATX 10 nM, LPC 18:1 10 μM, 37° C., 20 min pre-incubation; mean of n≧2. It is filed as biochemical. How it is done:
Reagents—LPC (oleoyl (18:1)) was purchased from Avanti Polar Lipids (Alabaster, Ala.) and solubilized in methanol to 20 mM. Amplex Red was obtained from Invitrogen Life Technologies (Paisley, UK) and dissolved in DMSO to 10 mM. Choline oxidase and horseradish peroxidase (HRP) were obtained from Sigma Aldrich (Dorset, UK) and dissolved in HBSS to 20 U/ml and 200 U/ml respectively. All reagents were stored at −20° C. in single use aliquots. All experimental measurements were performed in assay buffer made up immediately prior to use (HBSS, 0.01% BSA essentially fatty acid free).
PerkinElmer EnVision (Fluorescence Intensity/Absorbance Monochromator) or Tecan Infinite 200 PRO series plate reader was used to detect change in fluorescent intensity.
Assessing ATX inhibition—ATX activity was determined by measurement of released choline in reactions containing ATX (10 nM), choline oxidase (0.1 U/ml), HRP (100 U/ml), amplex red (50 μM) and LPC 18:1 (10 μM). Compounds of the invention were prepared as 10 point serial dilutions from 1 μM in duplicate and pre-incubated with ATX at 37° C. for 20 minutes prior to the addition of remaining reagents. The liberated choline was measured from changes in fluorescence intensity (λex 530 nm, λem 590 nm) of the product resurofin at 37° C. every 2 minutes over a 40-minute period. ATX activity was measured as a slope of the linear portion of the progress curve, typically between 14 to 24 minutes.
Data analysis—Slope data was exported to Graphpad prism (Graphpad software, San Diego, Calif.) where data was fitted to equation 1. Y=Bottom+(Top-Bottom)/(1+10^((Log IC50−X)*HillSlope)) Equation 1: […]
As to `Cc1nnn(Cc2cc(C(F)(F)F)ccc2CCC(=O)N2CCC(c3nnc(C)o3)CC2)n1` [Example 40, 1-(4-(5-Methyl-1,3,4-oxadiazol-2-yl)piperidin-1-yl)-3-(2-((5-methyl-2H-tetrazol-2-yl)methyl)-4-(trifluoromethyl)phenyl)propan-1-one], the IC50 amounted to 42 nM.

For the molecule `Cc1nnn(Cc2cc(F)ccc2/C=C/C(=O)N2CCC(Cc3nnc(C)o3)CC2)n1` [Example 41, (E)-3-(4-Fluoro-2-((5-methyl-2H-tetrazol-2-yl)methyl)phenyl)-1-(4-((5-methyl-1,3,4-oxadiazol-2-yl)methyl)piperidin-1-yl)prop-2-en-1-one], the IC50 came to 654 nM.

On to `Cc1nnn(Cc2cc(F)c(F)cc2/C=C/C(=O)N2CCC(Cc3nnc(C)o3)CC2)n1` [Example 42, (E)-3-(4,5-Difluoro-2-((5-methyl-2H-tetrazol-2-yl)methyl)phenyl)-1-(4-((5-methyl-1,3,4-oxadiazol-2-yl)methyl)piperidin-1-yl)prop-2-en-1-one], for which the IC50 was 436 nM.

Regarding `Cc1nnn(Cc2ccc(Cl)cc2/C=C/C(=O)N2CCC(Cc3nnc(C)o3)CC2)n1` [Example 43, (E)-3-(5-Chloro-2-((5-methyl-2H-tetrazol-2-yl)methyl)phenyl)-1-(4-((5-methyl-1,3,4-oxadiazol-2-yl)methyl)piperidin-1-yl)prop-2-en-1-one], the IC50 is 2370 nM.

In the case of `Cc1nnn(Cc2cccc(F)c2/C=C/C(=O)N2CCC(Cc3nnc(C)o3)CC2)n1` [Example 44, (E)-3-(2-Fluoro-6-((5-methyl-2H-tetrazol-2-yl)methyl)phenyl)-1-(4-((5-methyl-1,3,4-oxadiazol-2-yl)methyl)piperidin-1-yl)prop-2-en-1-one], the IC50 is 535 nM.

On to `Cc1cnc(Cc2cc(Cl)ccc2/C=C/C(=O)N2CCC(Cc3nnc(C)o3)CC2)o1` [Example 45, (E)-3-(4-Chloro-2-((5-methyloxazol-2-yl)methyl)phenyl)-1-(4-((5-methyl-1,3,4-oxadiazol-2-yl)methyl)piperidin-1-yl)prop-2-en-1-one], for which the IC50 came out at 644 nM.

As for `Cc1nnn(Cc2cccc(Cl)c2/C=C/C(=O)N2CCC(Cc3nnc(C)o3)CC2)n1` [Example 46, (E)-3-(2-Chloro-6-((5-methyl-2H-tetrazol-2-yl)methyl)phenyl)-1-(4-((5-methyl-1,3,4-oxadiazol-2-yl)methyl)piperidin-1-yl)prop-2-en-1-one], the half-inhibitory concentration (IC50) stood at 204 nM.

As for `Cc1nnn(Cc2cc(Cl)ccc2COC(=O)N2CCC(c3nnc(C)o3)CC2)n1` [Example 47, 4-Chloro-2-((5-methyl-2H-tetrazol-2-yl)methyl)benzyl 4-(5-methyl-1,3,4-oxadiazol-2-yl)piperidine-1-carboxylate], the IC50 is 442 nM.

As for `Cc1nnn(Cc2cc(Cl)ccc2COC(=O)N2CCC(c3ncc(C)o3)CC2)n1` [Example 48, 4-Chloro-2-((5-methyl-2H-tetrazol-2-yl)methyl)benzyl 4-(5-methyloxazol-2-yl)piperidine-1-carboxylate], the IC50 amounted to 70 nM.

As for `Cc1nnn(Cc2cc(Cl)ccc2/C=C/C(=O)N2CCN(c3ncccn3)CC2)n1` [Example 49.1, (E)-3-(4-Chloro-2-((5-methyl-2H-tetrazol-2-yl)methyl)phenyl)-1-(4-(pyrimidin-2-yl)piperazin-1-yl)prop-2-en-1-one], the IC50 came out at 20 nM.

As for `Cc1nnn(Cc2cc(Cl)ccc2/C=C/C(=O)N2CC(S(C)(=O)=O)C2)n1` [Example 49.2, (E)-3-(4-Chloro-2-((5-methyl-2H-tetrazol-2-yl)methyl)phenyl)-1-(3-(methylsulfonyl)azetidin-1-yl)prop-2-en-1-one], the IC50 is 477 nM.

`Cc1nnn(Cc2cc(Cl)ccc2/C=C/C(=O)N2CCC(N3CCNC3=O)CC2)n1` [Example 49.3, (E)-1-(1-(3-(4-Chloro-2-((5-methyl-2H-tetrazol-2-yl)methyl)phenyl)acryloyl)piperidin-4-yl)imidazolidin-2-one]: the IC50 is 129 nM.

`Cc1nnn(Cc2cc(Cl)ccc2/C=C/C(=O)N2CCC(F)C2)n1` (stereo not shown) [Example 49.5, (E)-3-(4-Chloro-2-((5-methyl-2H-tetrazol-2-yl)methyl)phenyl)-1-(3-fluoropyrrolidin-1-yl)prop-2-en-1-one]: the IC50 is 320 nM.

As to `Cc1nnn(Cc2cc(Cl)ccc2/C=C/C(=O)N2CCC(CCO)CC2)n1` [Example 49.6, (E)-3-(4-Chloro-2-((5-methyl-2H-tetrazol-2-yl)methyl)phenyl)-1-(4-(2-hydroxyethyl)piperidin-1-yl)prop-2-en-1-one], the IC50 was 110 nM.

Consider `Cc1nnn(Cc2cc(Cl)ccc2/C=C/C(=O)N2CCCC(O)C2)n1` (stereo not shown) [Example 49.7, (E)-3-(4-Chloro-2-((5-methyl-2H-tetrazol-2-yl)methyl)phenyl)-1-(3-hydroxypiperidin-1-yl)prop-2-en-1-one], for which the IC50 was 151 nM.

In the case of `Cc1nnn(Cc2cc(Cl)ccc2/C=C/C(=O)N2CCCC(C(N)=O)C2)n1` (stereo not shown) [Example 49.8, (E)-1-(3-(4-Chloro-2-((5-methyl-2H-tetrazol-2-yl)methyl)phenyl)acryloyl)piperidine-3-carboxamide], the IC50 amounted to 354 nM.

In the case of `CCOC(=O)C1CCN(C(=O)/C=C/c2ccc(Cl)cc2Cn2nnc(C)n2)CC1` [Example 49.9, (E)-ethyl 1-(3-(4-Chloro-2-((5-methyl-2H-tetrazol-2-yl)methyl)phenyl)acryloyl)piperidine-4-carboxylate], the IC50 is 5.9 nM.

For `Cc1nnn(Cc2cc(Cl)ccc2/C=C/C(=O)N2CCC(OCC(=O)N3CCCCC3)CC2)n1` [Example 49.10, (E)-3-(4-Chloro-2-((5-methyl-2H-tetrazol-2-yl)methyl)phenyl)-1-(4-(2-oxo-2-(piperidin-1-yl)ethoxy)piperidin-1-yl)prop-2-en-1-one], the IC50 worked out at 24 nM.

On to `Cc1nnn(Cc2cc(Cl)ccc2/C=C/C(=O)N2CCC(Cn3cccn3)CC2)n1` [Example 49.11, (E)-1-(4-((1H-Pyrazol-1-yl)methyl)piperidin-1-yl)-3-(4-chloro-2-((5-methyl-2H-tetrazol-2-yl)methyl)phenyl)prop-2-en-1-one], for which the IC50 was 14 nM.

Turning to `Cc1nnn(Cc2cc(Cl)ccc2/C=C/C(=O)N2CCC(C(F)(F)F)CC2)n1` [Example 49.12, (E)-3-(4-Chloro-2-((5-methyl-2H-tetrazol-2-yl)methyl)phenyl)-1-(4-(trifluoromethyl)piperidin-1-yl)prop-2-en-1-one], the IC50 turned out to be 49 nM.

With `Cc1nnn(Cc2cc(Cl)ccc2/C=C/C(=O)N2CCC(Oc3ccccc3C(=O)N(C)C)CC2)n1` [Example 49.13, (E)-2-((1-(3-(4-Chloro-2-((5-methyl-2H-tetrazol-2-yl)methyl)phenyl)acryloyl)piperidin-4-yl)oxy)-N,N-dimethyl benzamide], the IC50 amounted to 17 nM.

Regarding `Cc1nnn(Cc2cc(Cl)ccc2/C=C/C(=O)N2CCCC[C@H]2C)n1` [Example 49.14, (R,E)-3-(4-Chloro-2-((5-methyl-2H-tetrazol-2-yl)methyl)phenyl)-1-(2-methylpiperidin-1-yl)prop-2-en-1-one], the IC50 was 85 nM.

As to `CC(=O)C1CCCN(C(=O)/C=C/c2ccc(Cl)cc2Cn2nnc(C)n2)C1` (stereo not shown) [Example 49.15, (E)-1-(3-Acetylpiperidin-1-yl)-3-(4-chloro-2-((5-methyl-2H-tetrazol-2-yl)methyl)phenyl)prop-2-en-1-one], the IC50 amounted to 127 nM.

As for `Cc1nnn(Cc2cc(Cl)ccc2/C=C/C(=O)N2CCCC(c3nncn3C)C2)n1` (stereo not shown) [Example 49.16, (E)-3-(4-Chloro-2-((5-methyl-2H-tetrazol-2-yl)methyl)phenyl)-1-(3-(4-methyl-4H-1,2,4-triazol-3-yl)piperidin-1-yl)prop-2-en-1-one], the IC50 is 1060 nM.

In the case of `COCC1CCCN(C(=O)/C=C/c2ccc(Cl)cc2Cn2nnc(C)n2)C1` (stereo not shown) [Example 49.17, (E)-3-(4-Chloro-2-((5-methyl-2H-tetrazol-2-yl)methyl)phenyl)-1-(3-(methoxymethyl)piperidin-1-yl)prop-2-en-1-one], the IC50 turned out to be 222 nM.

For the molecule `Cc1nnn(Cc2cc(Cl)ccc2/C=C/C(=O)N2CC[C@H](NC(=O)C(F)(F)F)C2)n1` [Example 49.18, (S,E)-N-(1-(3-(4-Chloro-2-((5-methyl-2H-tetrazol-2-yl)methyl)phenyl)acryloyl)pyrrolidin-3-yl)-2,2,2-trifluoroacetamide], the IC50 is 130 nM.

Turning to `CNC(=O)COC1CCN(C(=O)/C=C/c2ccc(Cl)cc2Cn2nnc(C)n2)CC1` [Example 49.19, (E)-2-((1-(3-(4-Chloro-2-((5-methyl-2H-tetrazol-2-yl)methyl)phenyl)acryloyl)piperidin-4-yl)oxy)-N-methylacetamide], the half-maximal inhibitory concentration (IC50) was determined as 176 nM.

`Cc1nnn(Cc2cc(Cl)ccc2/C=C/C(=O)N2CCN(C(=O)c3ccco3)CC2)n1` [Example 49.20, (E)-3-(4-Chloro-2-((5-methyl-2H-tetrazol-2-yl)methyl)phenyl)-1-(4-(furan-2-carbonyl)piperazin-1-yl)prop-2-en-1-one]: the IC50 was 110 nM.
